Experimental data reported in patent US10010560B2, “Small molecule HSP70 inhibitors” (THE TRUSTEES OF THE UNIVERSITY OF PENNSYLVANIA, priority 2014, dated 2018).
Like-named read-outs stand apart in the source and are kept apart here.

What was measured:
[1] = target: T1, ATP-bound DnaK (Escherichia coli, UniProt P0A6Y8); assay: ITC binding to ATP-bound DnaK; parameters: species or system E. coli; details: in words
T1 construct: Full-length recombinant proteins of HSP70 (aa 1-641) as well as DnaK (aa 1-638); His6 (N); made in house; host or cells: E. coli BL21 Star (DE3)
Text: The human stress-inducible HSP70 (residues 1-641 or 386-616 of SEQ ID NO: 2) and E. coli DnaK (residues 1-638, 389-607, or 393-507 of SEQ ID NO: 4) were cloned into the pET25 vector (EMD Millipore Chemicals, Inc., Billerica, Mass., USA) between the NdeI and XhoI restriction sites. The full-length HSP70 and DnaK mutants were constructed by PCR-based site-directed mutagenesis using the QuikChange™ Site-Directed Mutagenesis Kit (Agilent Technologies, Inc., Santa Clara, Calif., USA). All plasmid inserts were verified by DNA sequencing. All HSP70 and DnaK variants were produced with a N-terminal His6-tag in the E. coli BL21 Star (DE3) strain (Invitrogen catalog number C6010-03). The resulting strains were grown at 37° C. in LB medium containing 50 μg/mL of carbenicillin (Sigma-Aldrich Co., St. Louis, Mo., USA). At an OD600 about 0.3 to about 0.5, protein expression was induced with 0.5 mM isopropyl-β-D-thiogalactopyranoside (IPTG), and cells were subsequently grown at 25° C. for about 16 h. Cells were collected by centrifugation and resuspended in the Bugbuster® Master Mix (EMD Millipore Chemicals catalog number 71456-4), supplemented with protease inhibitors, 1 mM diethiothreitol (DTT) and 20 mM imidazole. The His6-tagged fusion proteins were isolated on Ni^2+-chelating resins (Ni-NTA Superflow, Qiagen catalog number 30410) by standard procedures. […]

[2] = target: T2, ADP-DnaK (WT, aa 1-638) (Escherichia coli, UniProt P0A6Y8); assay: ITC binding to ADP-bound full-length DnaK; parameters: species or system E. coli
T2 construct: Full-length recombinant proteins of HSP70 (aa 1-641) as well as DnaK (aa 1-638); His6 (N); made in house; host or cells: E. coli BL21 Star (DE3)
Description: For isothermal titration calorimetry studies, all HSP70 and DnaK variants were dialyzed extensively against the buffers as noted below under the section entitled “Isothermal Titration calorimetry Studies”. The dialyzed proteins were subsequently microcentrifugated at 15,000×g for 5 min at 4° C. and aliquots of the soluble proteins were stored at −80° C.
All ITC experiments were performed using a MicroCal VP-ITC isothermal titration calorimeter (MicroCal). Both full-length HSP70 and DnaK proteins and DnaK (aa 393-507) proteins were prepared in 1 mM Tris-HCl (pH 7.4) buffer containing 3% dimethylsulfoxide (DMSO). The HSP70 (aa 386-616) protein was prepared in buffer containing 3% DMSO and 10 mM Tris-HCl, pH 7. The syringe was loaded with purified protein in either 1 mM Tris-HCl (pH 7.4) buffer containing 3% DMSO or 10 mM Tris-HCl (pH 7) buffer containing 3% DMSO. […] All solutions were degassed for 5 min.
The titrations involving the full-length purified proteins were performed at 25° C. with injection volumes of 12 μL and a spacing of 300 s. The titrations involving the purified HSP70 (aa 386-616) and DnaK (aa 393-507) were performed at 42° C. with injection volumes of 12 μL and a spacing of 300 s. Heat from the pre-injection was not used during fitting. […]

[3] = target: T3, HSP70 (Homo sapiens, UniProt P0DMV8, E110D); assay: ITC of HSP70 preincubated with competing compound; type: binding; details: ITC competition
T3 construct: His6 (N); made in house; host or cells: E. coli BL21 Star (DE3)
Text: FIGS. 3A-3L illustrate that PET-16 binds directly to ADP-bound HSP70 and DnaK. Specifically, FIGS. 3A-3H are isothermal calorimetric titration (ITC) assays of the indicated compounds (NRLLLTG—SEQ ID NO: 7, PES or PET-16) with purified HSP70-ADP, DnaK-ADP or HSP70-ATP proteins. The data are representative of three independent experiments. FIGS. 3I and 3J are ITC assays for the interaction between HSP70 (aa 386-616 of SEQ ID NO: 2) protein and PET-16 (I) or TPP (J). Binding constants (Kd values) are shown (average and s.d. from three independent experiments). PET-16 also binds directly to the purified, full-length, nucleotide-free HSP70 protein, with a reported dissociation constant of 5.2+/−0.1 micromolar, which is the average and standard deviation from two independent experiments (data not shown). FIG. 3K is ITC assay of HSP70 protein preincubated with ADP and PES for 1 h. The mixture was titrated into the sample cell containing PET-16. The data are representative of three independent ITC experiments. FIG. 3L are western blots of human lung carcinoma (H1299) cells that were pretreated with DMSO or excess (8×) PET-16 for 1 h prior to the addition of 20 μM B-PES for 5 h and examined for the expression of HSP70 or BCL-xL. B-PES-containing complexes were captured by Avidin resins and immunoblotted either with anti-HSP70 or anti-BCL-xL antibody. […]

T2 sequence (P0A6Y8 whole entry, the tested form may be a part): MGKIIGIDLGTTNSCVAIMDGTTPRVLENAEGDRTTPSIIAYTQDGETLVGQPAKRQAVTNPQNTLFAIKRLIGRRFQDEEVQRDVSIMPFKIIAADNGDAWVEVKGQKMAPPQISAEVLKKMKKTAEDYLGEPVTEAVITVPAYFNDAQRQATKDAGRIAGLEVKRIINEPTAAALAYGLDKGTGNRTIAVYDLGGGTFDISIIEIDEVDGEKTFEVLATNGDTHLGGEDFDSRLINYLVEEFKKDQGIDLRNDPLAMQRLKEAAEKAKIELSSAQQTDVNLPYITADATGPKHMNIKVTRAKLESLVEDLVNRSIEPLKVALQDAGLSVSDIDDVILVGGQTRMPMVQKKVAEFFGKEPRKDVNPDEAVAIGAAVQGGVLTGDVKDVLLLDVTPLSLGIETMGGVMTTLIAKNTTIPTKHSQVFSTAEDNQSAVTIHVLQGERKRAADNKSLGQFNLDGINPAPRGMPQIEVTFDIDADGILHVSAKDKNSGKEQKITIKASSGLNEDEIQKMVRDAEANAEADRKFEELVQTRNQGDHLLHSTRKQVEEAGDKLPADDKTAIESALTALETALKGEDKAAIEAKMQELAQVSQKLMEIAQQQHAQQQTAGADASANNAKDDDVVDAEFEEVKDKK
T1 sequence (P0A6Y8 whole entry, the tested form may be a part): as above
T3 sequence (P0DMV8 whole entry E110D): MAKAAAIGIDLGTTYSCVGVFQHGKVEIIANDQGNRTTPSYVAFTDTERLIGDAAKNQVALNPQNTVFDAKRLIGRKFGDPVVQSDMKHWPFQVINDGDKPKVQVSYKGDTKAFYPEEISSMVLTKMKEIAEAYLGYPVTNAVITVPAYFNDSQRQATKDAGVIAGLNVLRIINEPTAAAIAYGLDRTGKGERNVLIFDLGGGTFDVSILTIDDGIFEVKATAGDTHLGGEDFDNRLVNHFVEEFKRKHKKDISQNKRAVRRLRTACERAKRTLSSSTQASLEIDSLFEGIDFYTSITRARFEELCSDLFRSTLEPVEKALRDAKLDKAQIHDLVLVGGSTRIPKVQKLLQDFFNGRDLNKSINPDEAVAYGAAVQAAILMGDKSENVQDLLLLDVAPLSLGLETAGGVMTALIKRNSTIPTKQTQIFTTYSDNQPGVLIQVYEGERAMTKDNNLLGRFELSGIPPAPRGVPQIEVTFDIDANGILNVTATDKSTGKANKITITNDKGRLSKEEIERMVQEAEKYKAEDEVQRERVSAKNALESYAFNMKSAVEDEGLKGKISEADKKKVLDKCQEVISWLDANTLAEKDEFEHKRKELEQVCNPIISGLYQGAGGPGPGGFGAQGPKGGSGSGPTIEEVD

Structure (SMILES)	interaction with ATP-bound DnaK [1]	Kd ([2]; ITC, wild-type full-length ADP-bound DnaK, read-out: Kd)	binding to HSP70 after pre-incubation with the other compound (PES / PET-16) [3]	Kd [2]
NS(=O)(=O)C#Cc1ccccc1 [PES, 2-Phenylethynesulfonamide, reference compound]	notably reduced	~6.8 µM	impaired	–
C(#C[P+](c1ccccc1)(c1ccccc1)c1ccccc1)c1ccccc1.[Br-] [PET-16, triphenyl(phenylethynyl)phosphonium bromide]	notably reduced	–	markedly reduced	~6 µM
